Some test systems named below: P. acnes PRP-046; P. acnes PRP-053; P. acnes PRP-059; P. acnes PRP-068.
Assay in all cases: Disc diffusion assay (DDA), also supplemented
Holding throughout (assay type): cell-based, Propionibacterium acnes
Holding throughout (conditions): 200 μg per disc

Experimental for P. acnes PRP-053: (§1) The propionibacteria were cultured and maintained on Wilkins-Chalgren Anaerobe Medium (agar and broth) at pH 6.0; all cultures were incubated anaerobically at 37° C. for 72 hours.
(§2) A sterile paper disc was impregnated with a sample of the test compound in a suitable solvent and 30 minutes allowed for the solvents to evaporate (where possible). The disc was then placed on an agar plate onto which the test micro-organism had been inoculated. The plate was then incubated under the conditions described above, following which it was examined visually for signs of bacterial growth. […] The diameter of this zone of “inhibition” was measured using a ProtoCOL™ automated zone sizer (Synbiosis, Cambridge, UK).
(§3) For assays using Propionibacterium spp. strains the supplements used in the examples below were lipid (either Tween™ 80 or triolein, both at 1% v/v) and sodium chloride (100 mM).
Experimental for P. acnes PRP-059: as §1, §2, §3
Experimental for P. acnes PRP-068: as §1, §2, §3

`O.O.O.O.O.O=S(=O)([O-])[O-].[Cu+2]` [Copper (II) sulphate pentahydrate]: the “DDA + salt” value with P. acnes PRP-046 stood at 63.54 mm; in the assay with P. acnes PRP-053, 54.42 mm; in the assay on P. acnes PRP-059 it was 55.33 mm; in the assay with P. acnes PRP-068, 54.73 mm. Also, the “DDA + lipid” value with P. acnes PRP-046 (1% (v/v) triolein) was 60.81 mm; with P. acnes PRP-053 (1% (v/v) triolein), 51.08 mm; with P. acnes PRP-059 (1% (v/v) triolein) it was 48.95 mm; in the assay with P. acnes PRP-068 (1% (v/v) triolein) it was 49.56 mm. In addition, the DDA in the assay on P. acnes PRP-046 (single replicate) came to 53.81 mm; with P. acnes PRP-046 (Table 12 series) it was 50.29 mm; with P. acnes PRP-053 (single replicate) it was 43.78 mm; in the assay on P. acnes PRP-053 (Table 12 series) it was 50.18 mm; in the assay with P. acnes PRP-059 (single replicate), 48.04 mm; in the assay on P. acnes PRP-059 (Table 12 series) it was 50.70 mm. Besides, the DDA in the assay with P. acnes PRP-068 (single replicate) is given as 52.90 mm; with P. acnes PRP-068 (Table 12 series), 51.12 mm.
